Biological target: T1, human TREK-1 (Homo sapiens, UniProt O95069)
T1 construct: expressed in transfected cells
T1 sequence (O95069 1-426): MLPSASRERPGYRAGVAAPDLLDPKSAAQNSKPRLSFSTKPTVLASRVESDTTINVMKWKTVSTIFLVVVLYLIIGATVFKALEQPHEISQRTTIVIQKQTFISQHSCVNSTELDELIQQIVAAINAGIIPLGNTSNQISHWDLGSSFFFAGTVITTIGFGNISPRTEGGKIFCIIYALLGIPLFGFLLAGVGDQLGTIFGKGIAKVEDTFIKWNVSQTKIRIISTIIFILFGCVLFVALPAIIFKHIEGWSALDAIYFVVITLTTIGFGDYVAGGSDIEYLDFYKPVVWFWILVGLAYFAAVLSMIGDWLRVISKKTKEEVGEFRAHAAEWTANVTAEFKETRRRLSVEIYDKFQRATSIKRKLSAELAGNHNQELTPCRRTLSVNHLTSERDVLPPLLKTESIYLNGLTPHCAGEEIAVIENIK
Test: thallium flux assay (TREK1 activation normalized to BL-1249)
Type: cell-based
Settings: normalized to 10 μM BL-1249, CHO-K1 cells stably expressing human TREK-1; for activation at 10 µM / activation at 30 µM: read-out: TREK1 activation RBL-1249 (%)
Protocol: The term “thallium flux assay” herein refers to a fluorescence-based assay used to monitor the activity of TREK channels. Thallium is a congener of potassium that readily fluxes through the pore of TREK channels. Thallium flux is measured using a commercially available, thallium-sensitive fluorescent dye called Thallos. The detail method is described below.
Method 1 (Thallium Flux Assay);
CHO-K1 cells stably expressing human TREK-1 or HEK293 cells stably expressing human TREK-2 are plated in 384-well plates, cultured overnight, loaded with Thallos dye the following day, treated with test compounds for 10 min, and then treated with thallium stimulus buffer to initiate thallium flux. The change in fluorescence at 25 seconds after thallium addition is normalized to baseline fluorescence (fluorescent intensity at 25 sec after Tl^+ addition)/(average of fluorescent intensity at pre-read).

[1] = concentration of Example compound 10 μM
[2] = concentration of Example compound 30 μM

SMILES	activation at 10 µM [1]	other results
O=C(NCc1ccc(OC(F)(F)F)cc1)c1ccc(-n2cncn2)cc1 [4-(1H-1,2,4-triazol-1-yl)-N-[4-(trifluoromethoxy)benzyl]benzamide]	63%	
O=C(NCc1ccc(OC(F)(F)F)cc1)c1ccn2cnnc2c1 [Example 1-3, N-[4-(trifluoromethoxy)benzyl][1,2,4]triazolo(4,3-a]pyridine-7-carboxamide]	28%	
O=C(NCc1ccc(Cl)cc1Cl)c1ccc2[nH]ncc2c1 [Example 1-6, N-(2,4-dichlorobenzyl)-1H-indazole-5-carboxamide]	26%	
O=C(NCc1ccc(OC(F)(F)F)cc1F)c1ccnc(F)c1 [Example 1-12, 2-fluoro-N-[2-fluoro-4-(trifluoromethoxy)benzyl]isonicotinamide]		activation at 30 µM [2]: 63%
O=C(NCc1ccc(OC(F)(F)F)cc1)c1ccn2ncnc2c1 [Example 1-21, N-[4-(trifluoromethoxy)benzyl][1,2,4]triazolo[1,5-a]pyridine-7-carboxamide]		activation at 30 µM [2]: 73%
O=C(NCc1ccc(OC(F)(F)F)c(F)c1)c1ccc2ncnn2c1 [Example 1-23]		TREK1 activation RBL-1249 (%) [1]: 63%
COc1cc(OC(F)(F)F)ccc1CNC(=O)c1ccc2ncnn2c1 [Example 1-26, N-[2-methoxy-4-(trifluoromethoxy)benzyl][1,2,4]triazolo[1,5-a]pyridine-6-carboxamide]		activation at 30 µM [2]: 74%
O=C(NCc1ccc(C(F)(F)F)cc1Cl)c1cccc2ncnn12 [Example 1-27, N-[2-chloro-4-(trifluoromethyl)benzyl][1,2,4]triazolo[1,5-a]pyridine-5-carboxamide]	91%	
O=C(NCc1ccc(Br)cc1Cl)c1ccc2ncnn2c1 [Example 1-28]		TREK1 activation RBL-1249 (%) [1]: 99%
COc1cc(OC(F)(F)F)ccc1CNC(=O)c1ccn2cnnc2c1 [Example 1-30, N-[2-methoxy-4-(trifluoromethoxy)benzyl][1,2,4]triazolo[4,3-a]pyridine-7-carboxamide]		activation at 30 µM [2]: 76%
O=C(NCc1ccc(C(F)(F)F)cc1Cl)c1ccn2cnnc2c1 [Example 1-31, N-[2-chloro-4-(trifluoromethyl)benzyl][1,2,4]triazolo[4,3-a]pyridine-7-carboxamide]	90%	
O=C(NCc1ccc(OC(F)(F)F)cc1)c1cc2cccnc2s1 [Example 1-33, N-(4-(trifluoromethoxy)benzyl]thieno[2,3-b]pyridine-2-carboxamide]	26%	
O=C(NCc1ccc(OC(F)(F)F)cc1)c1cnc(C(F)(F)F)nc1 [Example 1-34, N-[4-(trifluoromethoxy)benzyl]-2-(trifluoromethyl)-5-pyrimidinecarboxamide]	33%	
O=C(NCc1ccc(OC(F)(F)F)cc1)c1ccc2nccnc2c1 [Example 1-36, N-[4-(trifluoromethoxy)benzyl]-6-quinoxalinecarboxamide]	26%	
O=C(NCc1ccc(OC(F)(F)F)cc1)c1cn[nH]c(=O)c1 [Example 1-42, 6-oxo-N-[4-(trifluoromethoxy)benzyl]-1,6-dihydro-4-pyridazinecarboxamide]		activation at 30 µM [2]: 41%
O=C(NCc1ccc(OC(F)(F)F)cc1)c1nc2ncccn2n1 [Example 1-44, N-[4-(trifluoromethoxy)benzyl][1,2,4]triazolo[1,5-a]pyrimidine-2-carboxamide]		activation at 30 µM [2]: 25%
O=C(NCc1ccc(C(F)(F)F)cc1Cl)c1cc2ncccn2n1 [Example 1-47, N-(2-chloro-4-(trifluoromethyl)benzyl]pyrazolo[1,5-a]pyrimidine-2-carboxamide]	63%	
O=C(NCc1ccc(OC(F)(F)F)c(F)c1)c1cc2ncccn2n1 [Example 1-52, N-[3-fluoro-4-(trifluoromethoxy)benzyl]pyrazolo[1,5-a]pyrimidine-2-carboxamide]	75%	
Cc1cc(OC(F)(F)F)ccc1CNC(=O)c1cc(F)nc(F)c1 [Example 1-55, 2-6-difluoro-N-[2-methyl-4-(trifluorothoxy)benzyl]isonicotinamide]		TREK1 activation RBL-1249 (%) [2]: 38%
Cc1cc(OC(F)(F)F)ccc1CNC(=O)c1nc2ncccn2n1 [Example 1-61, N-[2-methyl-4-(trifluoromethoxy)benzyl][1,2,4]triazolo[1,5-a]pyrimidine-2-carboxamide]		activation at 30 µM [2]: 48%
O=C(NCc1ccc(OC(F)(F)F)cc1)c1ccc2[nH]ncc2c1 [Example 1-71, N-[4-(trifluoromethoxy)benzyl]-1H-indazole-5-carboxamide]	19%	
O=C(NCc1ccc(OC(F)(F)F)cc1)c1ccc2[nH]cnc2c1 [Example 1-72, N-[4-(trifluoromethoxy)benzyl]-1H-benzimidazole-5-carboxamide]		activation at 30 µM [2]: 60%
O=C(NCc1ccc(Br)cc1Cl)c1ccc2[nH]nnc2c1 [Example 1-76, N-[(4-bromo-2-chlorophenyl)methyl]-1H-benzotriazole-5-carboxamide]	101%	
O=C(NCc1ccc(Br)cc1Cl)c1ccc2snnc2c1 [Example 1-86, N-[(4-bromo-2-chlorophenyl)methyl]-1,2,3-benzothiadiazole-5-carboxamide]	75%	
O=C(NCc1ccc(S(F)(F)(F)(F)F)cc1)c1ccc(-n2cncn2)cc1 [Example 2-2, N-[4-(pentafluoro-λ^6-sulfanyl)benzyl]-4-(1H-1,2,4-triazol-1-yl)benzamide]	41%	
O=C(NCc1ccc(OC(F)(F)F)c(F)c1)c1ccc(-n2cncn2)cc1 [Example 2-3, N-[3-fluoro-4-(trifluoromethoxy)benzyl]-4-(1H-1,2,4-triazol-1-yl)benzamide]	72%	

More lines, main results first:

activation at 10 µM [1]	SMILES	other results
88%	Cc1cc(OC(F)(F)F)ccc1CNC(=O)c1ccc2ncnn2c1 [Example 1, N-[2-Methyl-4-(trifluoromethoxy)benzyl]-[1,2,4]triazolo[1,5-a]pyridine-6-carboxamide]	
44%	O=C(NCc1ccc(Cl)cc1Cl)c1ccc2ncnn2c1 [Example 1-5, N-(2,4-dichlorobenzyl)[1,2,4]triazolo[1,5-a]pyridine-6-carboxamide]	
65%	O=C(NCc1ccc(OC(F)(F)F)cc1F)c1ccc(F)nc1 [Example 1-13, 6-fluoro-N-[2-fluoro-4-(trifluoromethoxy)benzyl]nicotinamide]	
80%	O=C(NCc1ccc(OC(F)(F)F)cc1F)c1ccn2cnnc2c1 [Example 1-29, N-[2-fluoro-4-(trifluoromethoxy)benzyl][1,2,4]triazolo[4,3-a]pyridine-7-carboxamide]	
85%	Cc1cc(OC(F)(F)F)ccc1CNC(=O)c1ccn2cnnc2c1 [Example 1-45, N-[2-methyl-4-(trifluoromethoxy)benzyl][1,2,4]triazolo[4,3-a]pyridine-7-carboxamide]	
67%	Cc1cc(OC(F)(F)F)ccc1CNC(=O)c1cc2ncccn2n1 [Example 1-46, N-[2-methyl-4-(trifluoromethoxy)benzyl]pyrazolo[1,5-a]pyrimidine-2-carboxamide]	
66%	O=C(NCc1ccc(OC(F)(F)F)cc1F)c1cc2ncccn2n1 [Example 1-50, N-[2-fluoro-4-(trifluoromethoxy)benzyl]pyrazolo[1,5-a]pyrimidine-2-carboxamide]	
65%	COc1cc(OC(F)(F)F)ccc1CNC(=O)c1cc2ncccn2n1 [Example 1-51, N-[2-methoxy-4-(trifluoromethoxy)benzyl]pyrazolo[1,5-a]pyrimidine-2-carboxamide]	
78%	O=C(NCc1ccc(OC(F)(F)F)cc1F)c1cnc2ccnn2c1 [Example 1-81, N-[[2-fluoro-4-(trifluoromethoxy)phenyl]methyl]pyrazolo[1,5-a]pyrimidine-6-carboxamide]	
72%	Cc1cc(OC(F)(F)F)ccc1CNC(=O)c1ccn2ccnc2c1 [Example 1-87, N-[[2-methyl-4-(trifluoromethoxy)phenyl]methyl]imidazo[1,2-a]pyridine-7-carboxamide]	
70%	N#Cc1cc(OC(F)(F)F)ccc1CNC(=O)c1ccc2ncnn2c1 [Example 1-89, N-[[2-cyano-4-(trifluoromethoxy)phenyl]methyl]-[1,2,4]triazolo[1,5-a]pyridine-6-carboxamide]	
70%	O=C(NCc1ccc(OC(F)F)cc1Cl)c1ccc2ncnn2c1 [Example 1-92, N-[[2-chloro-4-(difluoromethoxy)phenyl]methyl]-[1,2,4]triazolo[1,5-a]pyridine-6-carboxamide]	
54%	COc1cc(OC(F)(F)F)ccc1CNC(=O)c1ccc(-n2cncn2)cc1 [Example 2-1, N-[2-methoxy-4-(trifluoromethoxy)benzyl]-4-(1H-1,2,4-triazol-1-yl)benzamide]	
